Test results taken from publication PMC8944748, “Kojic Acid Showed Consistent Inhibitory Activity on Tyrosinase from Mushroom and in Cultured B16F10 Cells Compared with Arbutins” (Antioxidants, 2022).
“Also recorded” adds a separate entry of the source.

Tests used:
[1] = system: three-dimensional human skin model; set-up: method as in PMID 15056856; settings: cited from earlier work
[2] = system: tyrosinase diphenolase from B16 mouse melanoma cells; set-up: method as in PMID 7765966; settings: cited from earlier work
[3] = biological target: diphenolase of mushroom tyrosinase (MTYR); test: Kinetic analysis of MTYR diphenolase (Lineweaver-Burk plot); format: biochemical
Procedure: (§1) The concentration of enzyme was fixed, while the concentration of substrate was changed. […] When determining inhibition type of monophenolase, the concentration of kojic acid were 7.5, 30, and 120 µM. […] The concentrations of deoxyarbutin were 3.75, 15, and 60 µM. […] The concentrations of deoxyarbutin were 7.5, 30, and 120 µM. Once the substrate was added to the reaction system, the formation of dopachrome was immediately detected at 475 nm once every minute for 30 min. Steady state rate (V0) was defined as the slope of the linear range of progress curves, also called the dopachrome accumulation curve. The Km (substrate concentration that yield a half-maximal velocity) and Vmax (maximum velocity) of tyrosinase were determined by Michaelis–Menten equation. Lineweaver–Burk plot was used to display the data.

[4] = system: monophenolase of mushroom tyrosinase (MTYR); test: MTYR monophenolase activity assay (L-tyrosine as substrate, dopachrome at 475 nm); format: biochemical
Procedure: L-tyrosine and L-DOPA were used as the substrates to test the monophenolase activity and diphenolase activity, respectively. Freshly prepared tyrosinase and substrate solutions were used in this experiment. For air-saturated solutions, a temperature of 25 °C and pH of 6.8 was maintained throughout the study. All assays were performed in triplicate. In flat-bottom 96-well plates, the reaction media was 200 μL. […] Once the substrate was added in reaction system, the formation of dopachrome was immediately measured at 475 nm for 30 min at 1 min intervals. The concentrations of kojic acid were 7.5, 15, 30, 60, and 120 μM. The concentrations of α-arbutin were 480, 960, 2000, 4000, and 8000 μM. The concentrations of β-arbutin were 240, 480, 960, 2000, and 4000 μM. […] These concentrations were used to determine the progress curves and inhibition rates of monophenolase. […] In the formula, 'negative control' is the treatment without sample; 'blank control' is the treatment without sample and substrate; 'sample' is the treatment including all solutions; and 'sample control' is the treatment without substrate but including sample. If the inhibition rate was negative, it meant the tyrosinase was activated. The activation rate was the absolute value of inhibition rate.

[5] = system: diphenolase of mushroom tyrosinase (MTYR); test: MTYR diphenolase activity assay (L-DOPA as substrate, dopachrome at 475 nm); format: biochemical; settings: L-DOPA
Procedure: L-tyrosine and L-DOPA were used as the substrates to test the monophenolase activity and diphenolase activity, respectively. Freshly prepared tyrosinase and substrate solutions were used in this experiment. For air-saturated solutions, a temperature of 25 °C and pH of 6.8 was maintained throughout the study. All assays were performed in triplicate. […] Additionally, three concentrations of every compound were selected to present progress curves. Once the substrate was added in reaction system, the formation of dopachrome was immediately measured at 475 nm for 25 min at 1 min intervals.

[6] = system: diphenolase activity of MTYR; set-up: method as in PMID 7765966; settings: α-arbutin below 10 mM; cited from earlier work
MTYR monophenolase = biological target: MTYR monophenolase; set-up: method as in PMID 28493937; settings: read-out: IC50 on the inhibitory activity of MTYR monophenolase; cited from earlier work
[7] = Cell viability of B16F10 cells, CCK-8 assay; format: cell-based, mouse; settings: mouse, B16F10 melanoma cells, percentage of the control
Procedure: Blank group (control 1) was the treatment containing cells and medium. […] Compound groups were the treatments containing cells, medium, α-MSH, and related compounds. Experiments were performed at least in triplicate. […] B16F10 cells at the exponential phase were adjusted for cell density and used in the following assay. […] Cells were seeded into 96-well plates at a density of 1 × 10^4 cells/well and incubated for 24 h. Then, the cells were treated with different concentrations of compounds for 48 h. After rinsing once with D-PBS, 100 uL DMEM containing 10% CCK-8 was added and incubated for another 1 h. The absorbance values of the solution at 450 nm were measured. The cell viability is expressed as a percentage of the control.

[8] = system: T1, B16F10 cellular tyrosinase (BTYR); test: B16F10 cellular tyrosinase (BTYR) activity, L-DOPA oxidase activity of lysate after treatment of cells; format: cell-based, mouse; settings: 48 h, percentage of control 2
T1 construct: The supernatant was used as the BTYR solution; endogenous in cells; host or cells: B16F10 mouse melanoma cells, α-MSH stimulated
Procedure: (§2) Measurement of B16F10 cellular tyrosinase (BTYR) activity, melanin content, and cell viability were the same as our previous study. Blank group (control 1) was the treatment containing cells and medium. Control group (control 2) was the treatment containing cells, medium, and α-MSH. Compound groups were the treatments containing cells, medium, α-MSH, and related compounds. Experiments were performed at least in triplicate.
(§3) B16F10 mouse malignant melanoma cell line from Stem Cell Bank (Chinese Academy of Sciences, Shanghai, China) were cultured in DMEM supplemented with 10% fetal bovine serum (FBS; Gibco, Grand Island, NV, USA) and antibiotics (100 U/mL penicillin and 100μg/mL streptomycin) in a humidified atmosphere of 5% CO2 at 37 °C. B16F10 cells at the exponential phase were adjusted for cell density and used in the following assay.
The BTYR activity was measured as the L-DOPA oxidase activity. B16F10 cells were seeded and incubated for 24 h in 24-well cell culture plates. Then, they were treated with 50 µL of 1 µM α-MSH and different molarities of compounds for another 48 h. After being washed twice with cold D-PBS and lysed with a lysis buffer (P0013J) containing 1% Triton X-100 for 30 min at −20 °C, the lysates were centrifuged at 12,000 rpm for 10 min at 4 °C. The supernatant was used as the BTYR solution. The reaction mixture, containing 50 μL of cell lysate supernatant and 50 μL of 5 mM L-DOPA, was incubated at 37 °C for 1 h and the level of dopachrome formation was measured spectrophotometrically at 475 nm. Lysis buffer was used as the control. The BTYR activity was calculated as a percentage of the control.

[9] = biological target: monophenolase of mushroom tyrosinase (MTYR); test: Kinetic analysis of MTYR monophenolase (Lineweaver-Burk plot); format: biochemical
Procedure: as §1

B16F10 cells = test: Cellular melanin content of B16F10 cells stimulated by α-MSH; format: cell-based, mouse; settings: 48 h, percentage of control 2
Procedure: as §2, §3
Briefly, B16F10 cells were treated with compounds as in Section 2.4.2. After being washed with PBS and dissolved in 1 M NaOH containing 10% DMSO for 1 h at 80 °C, the cell lysates were centrifuged at 12,000 rpm for 10 min. 150 μL of supernatant was transferred to 96-well plates and the absorbance was measured at 405 nm. The melanin content is expressed as a percentage of the control.

[10] = change with increasing compound molarity

OC[C@H]1O[C@H](Oc2ccc(O)cc2)[C@H](O)[C@@H](O)[C@@H]1O [α-arbutin]
inhibition of melanin synthesis [1]: 60% | potency relative to β-arbutin as inhibitor of tyrosinase from B16 mouse melanoma [2]: 10 times | Kinetic analysis on diphenolase Inhibition type ([3]; Lineweaver-Burk plot): uncompetitive activator | Kinetic analysis on diphenolase Km [3, 10]: increased | Kinetic analysis on diphenolase Vmax [3, 10]: increased | lag time for monophenolase activity ([4]; L-tyrosine, progress curves): extended in a molarity-dependent manner | IC50 ([4]; substrate L-tyrosine 2 mM, MTYR 300 U/mL, 25 °C, pH 6.8): 6.5 ± 0.137 mM | effect on diphenolase activity of MTYR ([5]; 30-8000 µM): prompted tyrosinase activity in a dose-dependent manner | lag time on diphenolase activity ([5]; progress curves): no lag time | effect on diphenolase activity of MTYR [6]: did not inhibit; also recorded: does not inhibit | IC50 (MTYR monophenolase): 8 mM | viability at 48 h, 43.8 µM ([7]; 43.8 µM): 108 ± 5% | viability at 48 h, 87.5 µM ([7]; 87.5 µM): 113 ± 7% | viability at 48 h, 175 µM ([7]; 175 µM): 118 ± 8% | viability at 48 h, 350 µM ([7]; 350 µM): 127 ± 10% | viability at 48 h, 700 µM ([7]; 700 µM): 145 ± 14% | tyrosinase activity of B16F10 cells stimulated by α-MSH ([8]; 43.8 µM): 91 ± 4% | tyrosinase activity of B16F10 cells stimulated by α-MSH ([8]; 87.5 µM): 88 ± 4% | tyrosinase activity of B16F10 cells stimulated by α-MSH ([8]; 175 µM): 90 ± 5% | tyrosinase activity of B16F10 cells stimulated by α-MSH ([8]; 350 µM): 93 ± 5% | tyrosinase activity of B16F10 cells stimulated by α-MSH ([8]; 700 µM): 86 ± 5% | Kinetic analysis on monophenolase Inhibition type ([9]; Lineweaver-Burk plot): competitive inhibitor | Kinetic analysis on monophenolase Km [9, 10]: increased | Kinetic analysis on monophenolase Vmax [9, 10]: remained constant | melanin content of B16F10 cells stimulated by α-MSH (B16F10 cells; 43.8 µM): 95 ± 11% | melanin content of B16F10 cells stimulated by α-MSH (B16F10 cells; 87.5 µM): 91 ± 5% | melanin content of B16F10 cells stimulated by α-MSH (B16F10 cells; 175 µM): 92 ± 3% | melanin content of B16F10 cells stimulated by α-MSH (B16F10 cells; 350 µM): 87 ± 5% | melanin content of B16F10 cells stimulated by α-MSH (B16F10 cells; 700 µM): 81 ± 3%
